Measured values published in the pKa sets of Baltruschat and Czodrowski (2020).

Details: acidic group

Q: For Oc1ccc(OCc2ccccc2)cc1, which pKa is on record?
A: Its pKa is 10.5.

Q: Which pKa does the source give for Cn1c(=O)[nH]c2c(ncn2C)c1=O here?
A: Its pKa is 6.3.

Q: For CCOC(=O)/C(C)=N/O, which pKa is on record?
A: The pKa was 9.64.

Q: Which pKa does the source give for NC(=O)c1c(CC(=O)O)n[nH]c1N here?
A: Its pKa is 3.5.

Q: For O=C(O)/C=C/SC1CCCCC1, which pKa is on record?
A: Its pKa is 4.7.

Q: With NC(=O)C[C@H](N)C(N)=O as the compound, how does the pKa read?
A: Its pKa is 7.

Q: With CC(=O)CC(=S)Nc1ccc(C)cc1 as the compound, how does the pKa read?
A: Its pKa is 7.65.

Q: For C[N+](C)(C)O, which pKa is on record?
A: Its pKa is 4.65.

Q: For CCCCC1(CC)C(=O)NC(=S)NC1=O, which pKa is on record?
A: The pKa was 7.37.

Q: With CC(C)C(Br)C(=O)O (stereo not drawn) as the compound, how does the pKa read?
A: Its pKa is 2.82.

Q: Which pKa does the source give for O=[PH](O)c1ccccc1 here?
A: The pKa was 1.63.

Q: For CN(C)c1ccc(O)cc1, which pKa is on record?
A: Its pKa is 10.2.

Q: For Cc1cccc(CCCCCCCC(=O)O)[nH+]1, which pKa is on record?
A: Its pKa is 4.6.

Q: Which pKa does the source give for N#CC(CC(=O)O)Cc1ccccc1 (stereo not drawn) here?
A: The pKa was 3.91.

Q: With O=[N+]([O-])c1ccc2cc(O)ccc2c1 as the compound, how does the pKa read?
A: Its pKa is 7.69.

Q: With N#CC(C#N)=NNc1ccccc1Br as the compound, how does the pKa read?
A: Its pKa is 6.35.

Q: Which pKa does the source give for C[NH+](C)CCCNC(=O)/C=N/O here?
A: The pKa was 8.68.

Q: Which pKa does the source give for CCOC(=O)C(=NO)C(=O)OCC here?
A: Its pKa is 5.48.

Q: With CC[NH+](CC)Cc1cc([N+](=O)[O-])ccc1O as the compound, how does the pKa read?
A: Its pKa is 5.75.

Q: For O=C(O)c1ccoc1, which pKa is on record?
A: Its pKa is 3.94.

Q: For Oc1ccc2cn[nH]c2c1, which pKa is on record?
A: Its pKa is 9.35.

Q: With N#CC(Br)C#N as the compound, how does the pKa read?
A: Its pKa is 5.

Q: With N#CC(C#N)=C(C#N)C(C#N)C#N as the compound, how does the pKa read?
A: The pKa was 1.9.

Q: With CCCS(=O)O as the compound, how does the pKa read?
A: Its pKa is 2.35.

Q: With O=C1COC(=O)N1 as the compound, how does the pKa read?
A: The pKa was 5.84.

Q: With CCCCCCCC(=O)N[C@H]1C(=O)N2[C@H]1SC(C)(C)[C@H]2C(=O)O as the compound, how does the pKa read?
A: Its pKa is 2.66.

Q: Which pKa does the source give for CC[NH+](CC)Cc1cc(F)ccc1O here?
A: The pKa was 8.23.

Q: With O=C(O)CNC(=O)c1ccccc1O as the compound, how does the pKa read?
A: The pKa was 3.63.

Q: Which pKa does the source give for CCc1cc([N+](=O)[O-])cc(CC)c1O here?
A: The pKa was 7.73.

Q: For O=P(O)(C1CCCCC1)C1CCCCC1, which pKa is on record?
A: Its pKa is 3.47.

Q: Which pKa does the source give for O=C(O)CSc1cccc([N+](=O)[O-])c1 here?
A: The pKa was 3.4.

Q: With CC(=O)c1c(C)cc(C)cc1C as the compound, how does the pKa read?
A: The pKa was 10.7.

Q: Which pKa does the source give for CCCC[P+](CCCC)(CCCC)C1c2ccccc2-c2ccccc21 here?
A: The pKa was 10.5.

Q: With [NH3+]C(Cc1ccc[nH+]c1)C(=O)O (stereo not drawn) as the compound, how does the pKa read?
A: Its pKa is 1.69.

Q: Which pKa does the source give for CC(C)CC(=O)CC(=O)C(F)(F)F here?
A: Its pKa is 6.52.

Q: Which pKa does the source give for CCC(C)[C@H]([NH3+])C(=O)O (stereo partly drawn) here?
A: Its pKa is 2.26.

Q: For Cc1cc(O)ccc1C(C)C, which pKa is on record?
A: The pKa was 10.3.

Q: With Cc1ccc(C(=O)O)s1 as the compound, how does the pKa read?
A: Its pKa is 3.76.

Q: With CNc1nnn[nH]1 as the compound, how does the pKa read?
A: Its pKa is 6.06.

Q: For C[n+]1nc(O)ccc1[O-], which pKa is on record?
A: The pKa was 5.65.

Q: With Nc1[nH+]c2nc[nH]c2c(N)[n+]1O as the compound, how does the pKa read?
A: The pKa was 1.

Q: With CC1CCCC(C(=O)O)c2nnnn21 (stereo not drawn) as the compound, how does the pKa read?
A: Its pKa is 3.3.

Q: Which pKa does the source give for NC(=O)c1ccc(N)cc1O here?
A: The pKa was 9.12.

Q: Which pKa does the source give for Cc1ccc(C(=O)Oc2ccccc2)c(O)c1 here?
A: Its pKa is 9.44.

Q: For O=C([O-])/C(=N\O)c1ccccc1, which pKa is on record?
A: Its pKa is 10.9.

Q: Which pKa does the source give for Cc1cc(O)n(-c2nc(O)c(C)c(C)[nH+]2)n1 here?
A: The pKa was 5.5.

Q: For S=c1[nH]c2ccccc2[nH]1, which pKa is on record?
A: The pKa was 10.2.

Q: Which pKa does the source give for COc1ccc(C=O)cc1O here?
A: The pKa was 8.89.

Q: For Cc1cc(O)c(C(C)C)cc1Cl, which pKa is on record?
A: Its pKa is 9.98.

Q: Which pKa does the source give for O=C(O)CCc1c[nH]c[nH+]1 here?
A: The pKa was 4.

Q: Which pKa does the source give for CS(=O)(=O)c1ccc(O)cc1 here?
A: The pKa was 7.83.

Q: With O=C1[N-]C(=O)/C(=N/O)C(=O)N1 as the compound, how does the pKa read?
A: The pKa was 10.1.

Q: For Oc1ccc(O)c(Br)c1, which pKa is on record?
A: Its pKa is 8.67.

Q: Which pKa does the source give for CCN(CC)Cc1cc(OC)ccc1O here?
A: The pKa was 10.9.

Q: Which pKa does the source give for Cc1cc(C)c2cccc(O)c2n1 here?
A: The pKa was 10.6.

Q: With c1ccc(-c2cn[nH]c2)cc1 as the compound, how does the pKa read?
A: Its pKa is 13.6.

Q: Which pKa does the source give for Cn1cnc(/N=N/O)n1 here?
A: The pKa was 5.48.

Q: With O=C(O)[C@H](O)c1ccccc1[N+](=O)[O-] as the compound, how does the pKa read?
A: Its pKa is 3.15.

Q: With NC(=O)c1cc(-c2ccccc2)nnc1NCCN1CCOCC1 as the compound, how does the pKa read?
A: Its pKa is 6.85.

Q: For COc1cc(/C=N/c2ncc3nc[nH]c3n2)ccc1O, which pKa is on record?
A: The pKa was 8.91.

Q: For CCC1(CC)SC(=O)NC1=O, which pKa is on record?
A: The pKa was 6.42.

Q: Which pKa does the source give for C=CC(O)OCC(C)O (stereo not drawn) here?
A: The pKa was 5.5.

Q: Which pKa does the source give for CC(=O)NBr here?
A: Its pKa is 8.1.

Q: With CCC[n+]1cccc2c(O)cccc21 as the compound, how does the pKa read?
A: The pKa was 6.06.

Q: Which pKa does the source give for CC(C)(C)P(=O)(O)C(C)(C)C here?
A: The pKa was 4.24.

Q: With [O-]c1ncnc2nc[nH]c12 as the compound, how does the pKa read?
A: The pKa was 12.1.

Q: With OC(c1ccncc1)(c1ccncc1)c1ccccn1 as the compound, how does the pKa read?
A: Its pKa is 12.4.

Q: With O=C1C[C@H]2C(=O)NC(=O)[C@H]2N1 as the compound, how does the pKa read?
A: Its pKa is 8.15.

Q: Which pKa does the source give for CC(C)CC([NH3+])C(=O)O (stereo not drawn) here?
A: The pKa was 2.46.

Q: With O=c1c(O)c1-c1ccccc1 as the compound, how does the pKa read?
A: The pKa was 2.01.

Q: For Oc1cccc(O)c1O, which pKa is on record?
A: Its pKa is 8.97.

Q: Which pKa does the source give for C[n+]1cccc2c(O)cccc21 here?
A: Its pKa is 6.12.

Q: For Nc1ccc(S(=O)(=O)Nc2nccc(N)n2)cc1, which pKa is on record?
A: Its pKa is 9.44.

Same assay, conditions: basic group

Q: Which pKa does the source give for Cc1ccc(CCN)cc1 here?
A: The pKa was 9.78.

Q: For Cc1cccc(Cl)c1/C(=N/CCCN(C)C)c1ccccc1, which pKa is on record?
A: Its pKa is 8.8.

Q: For OCc1cccnc1, which pKa is on record?
A: The pKa was 5.

Q: For CCCCCNc1ccccc1, which pKa is on record?
A: Its pKa is 5.2.

Q: With O=C([O-])c1ccc2sc(Cn3ccnc3)cc2c1 as the compound, how does the pKa read?
A: Its pKa is 6.34.

Q: With N[C@H]1CCCC[C@H]1C(=O)Oc1ccc([N+](=O)[O-])cc1 as the compound, how does the pKa read?
A: Its pKa is 8.42.

Q: With CCN(CC)c1ccc(C)cc1 as the compound, how does the pKa read?
A: Its pKa is 7.18.

Q: Which pKa does the source give for Nc1ccc2c(c1Br)CCCC2 here?
A: The pKa was 3.05.

Q: For Nc1cccc([I+]c2ccccc2)c1, which pKa is on record?
A: Its pKa is 1.87.

Q: Which pKa does the source give for COc1cc(Br)cc(C(=O)N[C@@H]2C[C@H]3CC[C@@H](C2)N3Cc2ccccc2)c1OC here?
A: Its pKa is 8.84.

Q: Which pKa does the source give for Nc1ccncc1N here?
A: Its pKa is 9.06.

Q: With NCCC(=O)Oc1ccc([N+](=O)[O-])cc1 as the compound, how does the pKa read?
A: The pKa was 9.17.

Q: With COc1c2ccccc2nc2ccccc12 as the compound, how does the pKa read?
A: The pKa was 7.

Q: With Cc1ccc(CNCCN)cc1 as the compound, how does the pKa read?
A: The pKa was 9.41.

Q: Which pKa does the source give for C=CCC(C)(O)CN(CC)CC (stereo not drawn) here?
A: Its pKa is 9.71.
